Assay results from ChEMBL document CHEMBL1123303, “Synthesis of 2-(4-substituted-1-piperazinyl)benzimidazoles as H1-antihistaminic agents” (J Med Chem, 1986).

What was measured:
[1] = molecular target: Histamine H1 receptor (Cavia porcellus, UniProt P31389); experiment: In vitro inhibition of histamine-induced contractions in guinea pig ileum; format: functional, tissue-based
[2] = In vivo for the inhibition of histamine-induced mortality in guinea pig; format: functional; conditions: Cavia porcellus

Chain of Histamine H1 receptor (P31389 whole entry): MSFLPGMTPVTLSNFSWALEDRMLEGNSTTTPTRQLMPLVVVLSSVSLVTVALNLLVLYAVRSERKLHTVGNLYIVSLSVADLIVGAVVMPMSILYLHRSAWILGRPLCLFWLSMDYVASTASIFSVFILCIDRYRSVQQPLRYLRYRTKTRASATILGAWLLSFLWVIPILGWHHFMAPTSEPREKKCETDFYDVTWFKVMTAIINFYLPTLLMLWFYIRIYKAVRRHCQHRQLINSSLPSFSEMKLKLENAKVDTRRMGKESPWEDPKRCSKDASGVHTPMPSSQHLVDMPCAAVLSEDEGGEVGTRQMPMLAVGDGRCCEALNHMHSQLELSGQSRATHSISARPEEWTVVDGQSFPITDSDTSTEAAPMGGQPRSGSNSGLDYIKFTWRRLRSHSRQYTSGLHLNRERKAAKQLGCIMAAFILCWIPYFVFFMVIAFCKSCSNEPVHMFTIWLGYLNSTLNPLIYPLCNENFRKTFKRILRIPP

**Q.** For `CN1CCN(c2nc3ccccc3n2-c2ccccc2)CC1`, which IC50 [1] is on record?
**A.** The IC50 was 760 nM.

**Q.** With `CCCC(C)Cn1c(N2CCN(C)CC2)nc2ccccc21` (configuration not stated) as the compound, how does the IC50 [1] read?
**A.** Its IC50 is 1500 nM.

**Q.** For `CN1CCN(c2nc3ccccc3n2Cc2ccccc2)CC1`, which ED50 [2] is on record?
**A.** The ED50 was over 0.05 mg/kg.

**Q.** What about the IC50 [1] of the same compound?
**A.** Its IC50 is 17 nM.

**Q.** For `CCCOCn1c(N2CCN(C)CC2)nc2ccccc21`, which ED50 [2] is on record?
**A.** Its ED50 is over 0.1 mg/kg.

**Q.** And the IC50 [1]?
**A.** The IC50 was 18 nM.

**Q.** For `CCOCCn1c(N2CCCN(CC)CC2)nc2ccccc21`, which ED50 [2] is on record?
**A.** Its ED50 is 0.032 mg/kg.

**Q.** And the IC50 [1]?
**A.** The IC50 was 16 nM.

**Q.** With `CCCCCn1c(N2CCN(C)CC2)nc2ccccc21` as the compound, how does the ED50 [2] read?
**A.** The ED50 was 0.19 mg/kg.

**Q.** And the IC50 [1]?
**A.** Its IC50 is 19 nM.

**Q.** Which ED50 [2] does the source give for `COCCCn1c(N2CCN(C)CC2)nc2ccccc21` here?
**A.** Its ED50 is over 0.1 mg/kg.

**Q.** And the IC50 [1]?
**A.** Its IC50 is 860 nM.

**Q.** With `CCCC(C)n1c(N2CCN(C)CC2)nc2ccccc21` (configuration not stated) as the compound, how does the IC50 [1] read?
**A.** Its IC50 is 1400 nM.

**Q.** Which IC50 [1] does the source give for `CCSCCCn1c(N2CCN(C)CC2)nc2ccccc21` here?
**A.** The IC50 was 530 nM.

**Q.** With `CCOCCn1c(N2CCN(Cc3ccccc3)CC2)nc2ccccc21` as the compound, how does the ED50 [2] read?
**A.** The ED50 was 0.039 mg/kg.

**Q.** And the IC50 [1]?
**A.** Its IC50 is 27 nM.

**Q.** With `CCOCCn1c(N2CCN(c3ccccc3)CC2)nc2ccccc21` as the compound, how does the IC50 [1] read?
**A.** Its IC50 is over 10000 nM.

**Q.** For `CN1CCN(c2nc3ccccc3n2CCc2ccccc2)CC1`, which IC50 [1] is on record?
**A.** Its IC50 is 240 nM.

**Q.** Which results are given for `CCCCN1CCCN(c2nc3ccccc3n2CCOCC)CC1`?
**A.** ED50 [2]: 0.12 mg/kg; IC50 [1]: 8.4 nM

**Q.** With `CN1CCN(c2nc3ccccc3n2CCOCc2ccccc2)CC1` as the compound, how does the ED50 [2] read?
**A.** The ED50 was over 0.1 mg/kg.

**Q.** What about the IC50 [1] of the same compound?
**A.** The IC50 was 430 nM.

**Q.** With `C=CCOCCn1c(N2CCN(C)CC2)nc2ccccc21` as the compound, how does the IC50 [1] read?
**A.** Its IC50 is 17 nM.

**Q.** For `CCSCCn1c(N2CCN(C)CC2)nc2ccccc21`, which ED50 [2] is on record?
**A.** The ED50 was 0.28 mg/kg.

**Q.** What about the IC50 [1] of the same compound?
**A.** Its IC50 is 19 nM.

**Q.** For `CCCCCCCCCCn1c(N2CCN(C)CC2)nc2ccccc21`, which IC50 [1] is on record?
**A.** The IC50 was 4200 nM.

**Q.** With `CCCCCCCn1c(N2CCN(C)CC2)nc2ccccc21` as the compound, how does the IC50 [1] read?
**A.** Its IC50 is 150 nM.

**Q.** Which IC50 [1] does the source give for `CCOCCn1c(N2CCN(CC)CC2)nc2ccccc21` here?
**A.** The IC50 was 18 nM.

**Q.** With `CCCn1c(N2CCN(C)CC2)nc2ccccc21` as the compound, how does the IC50 [1] read?
**A.** The IC50 was 380 nM.

**Q.** For `CN1CCN(c2nc3ccccc3n2CCOCCO)CC1`, which ED50 [2] is on record?
**A.** The ED50 was 0.051 mg/kg.

**Q.** And the IC50 [1]?
**A.** Its IC50 is 42 nM.

**Q.** For `C=COCCn1c(N2CCN(C)CC2)nc2ccccc21`, which ED50 [2] is on record?
**A.** The ED50 was 0.023 mg/kg.

**Q.** What about the IC50 [1] of the same compound?
**A.** The IC50 was 10 nM.

**Q.** With `CCCN1CCN(c2nc3ccccc3n2CCOCC)CC1` as the compound, how does the ED50 [2] read?
**A.** The ED50 was 0.021 mg/kg.

**Q.** And the IC50 [1]?
**A.** The IC50 was 16 nM.

**Q.** For `CCCCCN1CCN(c2nc3ccccc3n2CCOCC)CC1`, which ED50 [2] is on record?
**A.** The ED50 was over 0.1 mg/kg.

**Q.** And the IC50 [1]?
**A.** Its IC50 is 30 nM.

**Q.** Which IC50 [1] does the source give for `C=CCOCCn1c(N2CCCN(C)CC2)nc2ccccc21` here?
**A.** Its IC50 is 10 nM.

**Q.** For `CCCOCCn1c(N2CCCN(C)CC2)nc2ccccc21`, which IC50 [1] is on record?
**A.** Its IC50 is 16 nM.

**Q.** For `CCOCCn1c(N2CCCN(Cc3ccccc3)CC2)nc2ccccc21`, which ED50 [2] is on record?
**A.** The ED50 was over 0.1 mg/kg.

**Q.** What about the IC50 [1] of the same compound?
**A.** Its IC50 is 15 nM.

**Q.** For `CN1CCN(c2nc3ccccc3[nH]2)CC1`, which IC50 [1] is on record?
**A.** Its IC50 is over 3000 nM.

**Q.** What does the source list for `CCCCOCCn1c(N2CCCN(C)CC2)nc2ccccc21`?
**A.** ED50 [2]: > 0.1 mg/kg; IC50 [1]: 10 nM

**Q.** With `CCCCCCN1CCN(c2nc3ccccc3n2CCOCC)CC1` as the compound, how does the ED50 [2] read?
**A.** The ED50 was over 0.1 mg/kg.

**Q.** What about the IC50 [1] of the same compound?
**A.** Its IC50 is 8.6 nM.

**Q.** Which IC50 [1] does the source give for `CCCOCCn1c(N2CCN(C)CC2)nc2ccccc21` here?
**A.** Its IC50 is 20 nM.

**Q.** With `CCOCCn1c(N2CCN(C=O)CC2)nc2ccccc21` as the compound, how does the IC50 [1] read?
**A.** The IC50 was over 3000 nM.

**Q.** Which ED50 [2] does the source give for `CCOCCn1c(N2CCCNCC2)nc2ccccc21` here?
**A.** The ED50 was 0.041 mg/kg.

**Q.** What about the IC50 [1] of the same compound?
**A.** Its IC50 is 25 nM.

**Q.** With `CCCCCN1CCCN(c2nc3ccccc3n2CCOCC)CC1` as the compound, how does the ED50 [2] read?
**A.** Its ED50 is over 0.05 mg/kg.

**Q.** What about the IC50 [1] of the same compound?
**A.** The IC50 was 7.4 nM.

**Q.** Which results are given for `CCCCOCCn1c(N2CCN(C)CC2)nc2ccccc21`?
**A.** ED50 [2]: > 0.1 mg/kg; IC50 [1]: 38 nM

**Q.** For `CN1CCN(c2nc3ccccc3n2CCOc2ccccc2)CC1`, which IC50 [1] is on record?
**A.** The IC50 was 6.9 nM.

**Q.** With `CCCSCn1c(N2CCN(C)CC2)nc2ccccc21` as the compound, how does the IC50 [1] read?
**A.** Its IC50 is 68 nM.

**Q.** Which IC50 [1] does the source give for `C#CCOCCn1c(N2CCN(C)CC2)nc2ccccc21` here?
**A.** The IC50 was 12 nM.

**Q.** Which IC50 [1] does the source give for `CN1CCN(c2nc3ccccc3n2C)CC1` here?
**A.** The IC50 was 320 nM.

**Q.** With `CN1CCN(c2nc3ccccc3n2CCO)CC1` as the compound, how does the IC50 [1] read?
**A.** Its IC50 is 410 nM.

**Q.** For `CCOCCn1c(N2CCNCC2)nc2ccccc21`, which IC50 [1] is on record?
**A.** Its IC50 is 11 nM.

**Q.** Which IC50 [1] does the source give for `CCCCn1c(N2CCN(C)CC2)nc2ccccc21` here?
**A.** The IC50 was 50 nM.

**Q.** For `CCCCCCn1c(N2CCN(C)CC2)nc2ccccc21`, which IC50 [1] is on record?
**A.** Its IC50 is 26 nM.

**Q.** With `CCCCN1CCN(c2nc3ccccc3n2CCOCC)CC1` as the compound, how does the ED50 [2] read?
**A.** The ED50 was over 0.1 mg/kg.

**Q.** And the IC50 [1]?
**A.** Its IC50 is 15 nM.

**Q.** Which IC50 [1] does the source give for `CC(C)CCn1c(N2CCN(C)CC2)nc2ccccc21` here?
**A.** Its IC50 is 1400 nM.

**Q.** With `COCCn1c(N2CCN(C)CC2)nc2ccccc21` as the compound, how does the ED50 [2] read?
**A.** Its ED50 is over 0.05 mg/kg.

**Q.** What about the IC50 [1] of the same compound?
**A.** Its IC50 is 13 nM.

**Q.** For `C#CCOCCn1c(N2CCCN(C)CC2)nc2ccccc21`, which IC50 [1] is on record?
**A.** Its IC50 is 9.9 nM.

**Q.** With `CCOCCn1c(N2CCN(C(c3ccccc3)c3ccccc3)CC2)nc2ccccc21` as the compound, how does the IC50 [1] read?
**A.** The IC50 was over 3000 nM.

**Q.** For `CCOCCn1c(N2CCN(CCc3ccccc3)CC2)nc2ccccc21`, which ED50 [2] is on record?
**A.** The ED50 was over 0.1 mg/kg.

**Q.** What about the IC50 [1] of the same compound?
**A.** The IC50 was 31 nM.

**Q.** For `CCCN1CCCN(c2nc3ccccc3n2CCOCC)CC1`, which ED50 [2] is on record?
**A.** The ED50 was over 0.1 mg/kg.

**Q.** What about the IC50 [1] of the same compound?
**A.** Its IC50 is 8.4 nM.

**Q.** For `CN1CCCN(c2nc3ccccc3n2CCOc2ccccc2)CC1`, which IC50 [1] is on record?
**A.** Its IC50 is 9.1 nM.

**Q.** Which IC50 [1] does the source give for `CCOCCn1c(N2CCN(C)CC2)nc2ccccc21` here?
**A.** Its IC50 is 10 nM.

**Q.** For `CCOCCn1c(N2CCCN(C)CC2)nc2ccccc21` [EMEDASTINE], which ED50 [2] is on record?
**A.** Its ED50 is 0.0044 mg/kg.

**Q.** What about the IC50 [1] of the same compound?
**A.** Its IC50 is 6.1 nM.
